Data from patent US7858621B2 (Amorepacific Corporation, priority 2006, dated 2010).

target: T1, vanilloid receptor (Rattus norvegicus, UniProt O35433); assay: 45Ca influx test in cultured neonatal rat DRG neurons, inhibition of capsaicin response; assay type: cell-based; conditions: neonatal rat DRG neurons, capsaicin 0.5 μM, 45Ca influx; read-out: Antagonist Calcium Uptake Test (IC50)
T1 construct: DRG nerve cells from the primary culture of 2 days were equilibrated; endogenous in cells; host or cells: primary culture of dorsal root ganglion neurons from neonatal SD rats
Description: 1) Separation of Spinal Dorsal Root Ganglia (DRG) in Newborn Rats and Primary Culture Thereof
Neonatal (2-3 day old or younger than 2-3 day old) SD rats were put in ice for 5 minutes to anesthetize and disinfected with 70% ethanol. […] The DRG were incubated sequentially at 37° C. for 30 mins in 200 U/ml collagenase and 2.5 mg/ml trypsin, separately. The ganglia were washed twice with DME/F12 medium supplemented with 10% horse serum, triturated through a fire-polished Pasteur pipette, filtered through Nitex 80 membrane to obtain single cell suspension and the suspension was washed once more. This was subjected to centrifugation, then resuspended in cell culture medium at certain level of cell density. As the cell culture medium, DME/F12 medium supplemented with 10% horse serum was diluted with identical medium conditioned by C6 glioma cells 2 days on a confluent monolayer (1:1), and NGF (Nerve Growth Factor) was added to adjust 200 ng/ml as final concentration. After the cells were grown 2 days in medium where cytosine arabinoside (Ara-C, 100 μM) was added to kill dividing nonneuronal cells, medium was changed to one without Ara-C. The resuspended cells were plated at a density of 1500-2000 neurons/well onto Terasaki plates previously coated with 10 μg/ml poly-D-ornithine.
2) ^45Ca Influx Experiments
DRG nerve cells from the primary culture of 2 days were equilibrated by washing 4 times with HEPES (10 mM, pH 7.4)-buffered Ca^2+, Mg^2+-free HBSS (H-HBSS). The solution in each well was removed from the individual well. Medium containing the test compound plus capsaicin (final concentration 0.5 μM) and ^45Ca (final concentration 10 μCi/ml) in H-HBSS was added to each well and incubated at room temperature for 10 mins. Terasaki plates were washed five times with H-HBSS and dried at room temperature. To each well, 0.3% SDS (10 μl) was added to elute ^45Ca. After the addition of scintillation cocktail of into each well, the amount of ^45Ca influx into neuron was measured by counting radioactivity.

T1 sequence (O35433 whole entry): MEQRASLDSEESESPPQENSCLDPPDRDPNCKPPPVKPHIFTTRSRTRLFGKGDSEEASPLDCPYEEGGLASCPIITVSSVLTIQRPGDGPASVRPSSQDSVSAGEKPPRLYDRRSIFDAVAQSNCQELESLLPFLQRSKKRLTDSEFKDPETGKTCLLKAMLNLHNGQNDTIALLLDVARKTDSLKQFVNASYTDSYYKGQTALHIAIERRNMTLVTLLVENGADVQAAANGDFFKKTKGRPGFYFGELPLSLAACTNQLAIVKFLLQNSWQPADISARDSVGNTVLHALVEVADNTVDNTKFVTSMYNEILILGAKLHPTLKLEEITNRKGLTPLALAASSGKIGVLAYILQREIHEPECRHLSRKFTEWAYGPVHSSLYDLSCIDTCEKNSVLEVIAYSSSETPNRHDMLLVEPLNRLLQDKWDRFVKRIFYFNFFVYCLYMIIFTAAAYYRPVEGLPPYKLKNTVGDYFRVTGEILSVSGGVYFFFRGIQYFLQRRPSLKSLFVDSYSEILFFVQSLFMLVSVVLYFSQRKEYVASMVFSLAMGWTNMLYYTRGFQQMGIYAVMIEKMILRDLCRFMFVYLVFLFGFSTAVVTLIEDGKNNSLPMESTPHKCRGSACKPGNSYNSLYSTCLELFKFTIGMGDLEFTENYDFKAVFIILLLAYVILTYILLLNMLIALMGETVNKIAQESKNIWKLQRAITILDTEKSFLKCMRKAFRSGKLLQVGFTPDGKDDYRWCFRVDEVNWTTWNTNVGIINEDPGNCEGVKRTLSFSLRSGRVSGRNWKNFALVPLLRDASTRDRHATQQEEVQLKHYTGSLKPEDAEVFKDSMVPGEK

IC50	SMILES
5400 nM	C#Cc1cc(CNC(=O)/C=C/c2cccnc2N2CCOCC2)cc(F)c1NS(C)(=O)=O [Example 49, N-(3-Ethynyl-5-fluoro-4-methanesulfonylamino-benzyl)-3-(2-morpholin-4-yl-pyridin-3-yl)-acrylamide]
290 nM	C#Cc1cc(CNC(=O)/C=C/c2ccc(C(C)(C)C)nc2OC)cc(F)c1NS(C)(=O)=O [Example 11, 3-(6-tert-Butyl-2-methoxy-pyridin-3-yl)-N-(3-ethynyl-5-fluoro-4-methanesulfonylamino-benzyl)-acrylamide]
120 nM	CC(C)Nc1nc(C(F)(F)F)ccc1/C=C/C(=O)NCc1ccc(NS(C)(=O)=O)c(F)c1 [Example 121, N-(3-Fluoro-4-methanesulfonylamino-benzyl)-3-(2-isopropylamino-6-trifluoromethyl-pyridin-3-yl)-acrylamide]
270 nM	C[C@@H](NC(=O)/C=C/c1ccc(C(F)(F)F)nc1-c1cccc(F)c1)c1ccc(NS(C)(=O)=O)c(F)c1 [Example 181, (R)—N-[1-(3-Fluoro-4-methanesulfonylamino-phenyl)-ethyl]-3-[2-(3-fluoro-phenyl)-6-trifluoromethyl-pyridin-3-yl]-acrylamide]
430 nM	C#Cc1cc(CNC(=O)/C=C/c2ccc(C(F)(F)F)nc2N2CCCC(C(=O)OCC)C2)cc(F)c1NS(C)(=O)=O (stereo not drawn) [Example 114, N-(3-Ethynyl-5-fluoro-4-methansulfonylamino-benzyl)-3-[2-(3-ethoxycarbonyl-piperid-1-yl)-6-trifluoromethyl-pyridin-3-yl]-acrylamide]
200 nM	C#Cc1cc(CNC(=O)/C=C/c2ccc(C(F)(F)F)nc2SC(C)C)cc(F)c1NS(C)(=O)=O [Example 177, N-(3-Ethynyl-5-fluoro-4-methanesulfonylamino-benzyl)-3-(2-isopropylthio-6-trifluoromethyl-pyridin-3-yl)-acrylamide]
400 nM	COc1nc(C(C)(C)C)ccc1/C=C/C(=O)NCc1ccc(NS(C)(=O)=O)c(F)c1 [Examples 9]
> 10000 nM	CS(=O)(=O)Nc1ccc(CNC(=O)/C=C/c2ccc(Br)nc2)cc1F [Example 20, 3-(6-Bromo-pyridin-3-yl)-N-(3-fluoro-4-methanesulfonylamino-benzyl)-acrylamide]
49 nM	C[C@@H](NC(=O)/C=C/c1ccc(C(F)(F)F)nc1CCc1ccccc1)c1cc(F)c(NS(C)(=O)=O)c(F)c1 [Example 236, (R)—N-[1-(3,5-Difluoro-4-methanesulfonylamino-phenyl)-ethyl]-3-(2-phenethyl-6-trifluoromethyl-pyridin-3-yl)-acrylamide]
> 10000 nM	CS(=O)(=O)Nc1ccc(CNC(=O)/C=C/c2cccnc2N2CCOCC2)cc1F [Example 50, N-(5-fluoro-4-methanesulfonylamino-benzyl)-3-(2-morpholin-4-yl-pyridin-3-yl)-acrylamide]
57 nM	CCC(C)Nc1nc(C(F)(F)F)ccc1/C=C/C(=O)NCc1ccc(NS(C)(=O)=O)c(C)c1 (stereo not drawn) [Example 176, 3-(2-sec-Butylamino-6-trifluoromethyl-pyridin-3-yl)-N-(4-methanesulfonylamino-3-methyl-benzyl)-acrylamide]
62 nM	CCC(C)Cc1nc(C(F)(F)F)ccc1/C=C/C(=O)N[C@H](C)c1ccc(NS(C)(=O)=O)c(F)c1 (stereo partly drawn) [Example 211, (R)-3-[2-(2-Methyl-butyl)-6-trifluoromethyl-pyridin-3-yl]-N-[1-(3-fluoro-4-methanesulfonylamino-phenyl)-ethyl]-acrylamide]
22 nM	CCC(C)Nc1nc(C(F)(F)F)ccc1/C=C/C(=O)N[C@H](C)c1ccc(NS(C)(=O)=O)c(F)c1 (stereo partly drawn) [Example 210, (R)-3-(2-sec-Butylamino-6-trifluoromethyl-pyridin-3-yl)-N-[1-(3-fluoro-4-methanesulfonylamino-phenyl)-ethyl]-acrylamide]
170 nM	COCCNc1nc(C(F)(F)F)ccc1/C=C/C(=O)NCc1cc(F)c(NS(C)(=O)=O)c(F)c1 [Example 204, N-(3,5-Difluoro-4-methanesulfonylamino-benzyl)-3-[2-(2-methoxy-ethylamino)-6-trifluoromethyl-pyridin-3-yl]-acrylamide]
770 nM	CC(C)Cc1nc(C(F)(F)F)ccc1/C=C/C(=O)NCc1ccc(NS(C)(=O)=O)cc1 [Example 265, 3-(2-Isobutyl-6-trifluoromethyl-pyridin-3-yl)-N-(4-methanesulfonylamino-benzyl)-acrylamide]
54 nM	CCCCCc1nc(C(F)(F)F)ccc1/C=C/C(=O)NCc1ccc(NS(C)(=O)=O)c(C)c1 [Example 198, N-(4-Methanesulfonylamino-3-methyl-benzyl)-3-(2-pentyl-6-trifluoromethyl)-pyridin-3-yl-acrylamide]
54 nM	CCC(C)Nc1nc(C(F)(F)F)ccc1/C=C/C(=O)NCc1cc(C)c(NS(C)(=O)=O)c(F)c1 (stereo not drawn) [Example 130, 3-(2-sec-Butylamino-6-trifluoromethyl-pyridin-3-yl)-N-(3-fluoro-4-methanesulfonylamino-5-methyl-benzyl)-acrylamide]
410 nM	COC1CCN(c2nc(C(F)(F)F)ccc2C=CC(=O)NCc2ccc(NS(C)(=O)=O)c(F)c2)C1 (stereo not drawn) [Example 90, N-(3-Fluoro-4-methanesulfonylamino-benzyl)-3-[2-(3-methoxy-pyrrolidin-1-yl)-6-trifluoromethyl-pyridin-3-yl]-acrylamide]
210 nM	C#Cc1cc(CNC(=O)/C=C/c2ccc(C(C)(C)C)nc2N2CCOCC2)cc(F)c1NS(C)(=O)=O [Example 59, 3-(6-tert-Butyl-2-morpholin-4-yl-pyridin-3-yl)-N-(3-ethynyl-5-fluoro-4-methanesulfonylamino-benzyl)-acrylamide]
120 nM	CS(=O)(=O)Nc1c(F)cc(CNC(=O)/C=C/c2ccc(C(F)(F)F)nc2CCc2ccccc2)cc1F [Example 203, N-(3,5-Difluoro-4-methanesulfonylamino-benzyl)-3-(2-phenethyl-6-trifluoromethyl-pyridin-3-yl)-acrylamide]
75 nM	CCCCNc1nc(C(F)(F)F)ccc1/C=C/C(=O)NCc1ccc(NS(C)(=O)=O)c(C)c1 [Example 187, N-(4-Methanesulfonylamino-3-methyl-benzyl)-3-(2-butylamino-6-trifluoromethyl-pyridin-3-yl)-acrylamide]
69 nM	C#Cc1cc(CNC(=O)/C=C/c2ccc(C(F)(F)F)nc2N(C)c2ccccc2)cc(F)c1NS(C)(=O)=O [Example 166, N-(3-Ethynyl-5-fluoro-4-methanesulfonylamino-benzyl)-3-[2-(methyl-phenylamino)-6-trifluoromethyl-pyridin-3-yl]-acrylamide]
570 nM	CC(C)(C)c1cc(C(F)(F)F)c(/C=C/C(=O)NCc2ccc(NS(C)(=O)=O)c(F)c2)cn1 [Example 17, 3-(6-tert-Butyl-4-trifluoromethyl-pyridin-3-yl)-N-(3-fluoro-4-methanesulfonylamino-benzyl)-acrylamide]
93 nM	CCC(C)Nc1nc(C(F)(F)F)ccc1/C=C/C(=O)NCc1ccc(NS(C)(=O)=O)c(F)c1 (stereo not drawn) [Example 123, 3-(2-sec-Butylamino-6-trifluoromethyl-pyridin-3-yl)-N-(3-fluoro-4-methanesulfonylamino-benzyl)-acrylamide]
420 nM	Cc1cc(CNC(=O)/C=C/c2ccc(C(F)(F)F)nc2N2CCOCC2)cc(F)c1NS(C)(=O)=O [Example 8, N-(3-Fluoro-4-methanesulfonylamino-5-methyl-benzyl)-3-(2-morpholin-4-yl-6-trifluoromethyl-pyridin-3-yl)-acrylamide]
240 nM	C#Cc1cc(CNC(=O)/C=C(\CCC)c2ccc(C(F)(F)F)nc2CCC)cc(F)c1NS(C)(=O)=O [Example 276]
54 nM	CCCCCc1nc(C(F)(F)F)ccc1/C=C/C(=O)N[C@H](C)c1ccc(NS(C)(=O)=O)c(F)c1 [Example 215, (R)—N-[1-(3-Fluoro-4-methanesulfonylamino-phenyl)-ethyl]-3-(2-pentyl-6-trifluoromethyl)-pyridin-3-yl-acrylamide]
70 nM	Cc1cc(CNC(=O)/C=C/c2ccc(C(F)(F)F)nc2CC(C)C)ccc1NS(C)(=O)=O [Example 174, 3-(2-Isobutyl-6-trifluoromethyl-pyridin-3-yl)-N-(4-methanesulfonylamino-3-methyl-benzyl)-acrylamide]

SMILES	IC50
CCCCOc1nc(C(F)(F)F)ccc1CCC(=O)NCc1ccc(NS(C)(=O)=O)c(F)c1 [Example 86, 3-(2-Butoxy-6-trifluoromethyl-pyridin-3-yl)-N-(3-fluoro-4-methanesulfonylamino-benzyl)-propionamide]	1200 nM
CCCCOc1nc(C(F)(F)F)ccc1/C=C/C(=O)NCc1cc(F)c(NS(C)(=O)=O)c(C(F)(F)F)c1 [Example 168, 3-(2-Butoxy-6-trifluoromethyl-pyridin-3-yl)-N-(3-fluoro-4-methanesulfonylamino-5-trifluoromethyl-benzyl)-acrylamide]	1800 nM
